Drawing on PubChem BioAssay AID256 (DTP/NCI, 2004), this text covers T/C for 17 compounds.

For the assay, the system named is CD2F1 mice, L1210 leukemia ip, survival T/C. The assay is described as follows: NCI In Vivo Anticancer Drug Screen. Data for tumor model L1210 Leukemia (intraperitoneal) in CD2F1 (CDF1) mice. The settings on record: higher = longer survival. In outline: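 Activity against a transplanted murine tumor was judged by comparing the compound group with a vehicle group. The outcome in the treated animals was divided by that in the controls.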

The mark [1] stands for this setting: endpoint: mean survival time, dose: 100.0 mg/kg/injection, schedule: Q01DX009 (ip), vehicle: saline with Tween-80.
Where [2] appears, read: endpoint: mean survival time, dose: 100.0 mg/kg/injection, schedule: Q04DX003 (ip), vehicle: saline with Tween-80.
Where [3] appears, read: endpoint: mean survival time, dose: 200.0 mg/kg/injection, schedule: Q01DX009 (ip), vehicle: saline with Tween-80.
[4] abbreviates: endpoint: mean survival time, dose: 200.0 mg/kg/injection, schedule: Q04DX003 (ip), vehicle: saline with Tween-80.
The mark [5] stands for this setting: endpoint: mean survival time, dose: 400.0 mg/kg/injection, schedule: Q01DX009 (ip), vehicle: saline with Tween-80.
[6] abbreviates: endpoint: mean survival time, dose: 400.0 mg/kg/injection, schedule: Q04DX003 (ip), vehicle: saline with Tween-80.
Setting [7] is: endpoint: mean survival time, dose: 12.5 mg/kg/injection, schedule: Q01DX009 (ip), vehicle: Klucel (hydroxypropylcellulose) (HPC).
The mark [8] stands for this setting: endpoint: mean survival time, dose: 100.0 mg/kg/injection, schedule: Q04DX002 (ip), vehicle: saline with Tween-80.
Setting [9] is: endpoint: mean survival time, dose: 200.0 mg/kg/injection, schedule: Q04DX002 (ip), vehicle: saline with Tween-80.
The mark [10] stands for this setting: endpoint: mean survival time, dose: 50.0 mg/kg/injection, schedule: Q01DX009 (ip), vehicle: Klucel (hydroxypropylcellulose) (HPC).

“And” between values parts separate entries of the source, which are not always exact repeats. Equal values may be shown once. Toxic doses and inconclusive results are not listed.

For `OC(CCCCl)CC(O)(C(F)(F)F)C(F)(F)F` (stereo not given), the T/C runs as follows: under setting [1], 102 % of control; under setting [2], 108 % of control; under setting [3], 94 % of control; under setting [4], 89 % of control; under setting [5], 86 % of control; under setting [6], 94 % of control.
Take `CCOC(=O)C(=O)c1c(N)n(C)c(=O)n(C)c1=O`: the T/C (endpoint: mean survival time, dose: 6.25 mg/kg/injection, schedule: Q01DX009 (ip), vehicle: Klucel (hydroxypropylcellulose) (HPC)) is 112 % of control; the T/C under setting [7] was 87 % of control; the T/C (endpoint: mean survival time, dose: 25.0 mg/kg/injection, schedule: Q01DX009 (ip), vehicle: Klucel (hydroxypropylcellulose) (HPC)) was 102 % of control.
With `CCCCCCCCC(=O)OCC1OC(n2cnc3c(N)nc(Cl)nc32)CC1O` (stereo not given), the T/C was 161 % of control (endpoint: median survival time, dose: 40.0 mg/kg/injection, schedule: Q01DX009 (ip), vehicle: saline with Tween-80); 344 % of control (endpoint: median survival time, dose: 50.0 mg/kg/injection, schedule: Q01DX009 (ip), vehicle: saline with Tween-80); 177 % of control (endpoint: median survival time, dose: 60.0 mg/kg/injection, schedule: Q01DX009 (ip), vehicle: saline with Tween-80); 97 % of control (endpoint: median survival time, dose: 80.0 mg/kg/injection, schedule: Q01DX009 (ip), vehicle: saline with Tween-80); 102 % of control (endpoint: median survival time, dose: 100.0 mg/kg/injection, schedule: Q01DX009 (ip), vehicle: saline with Tween-80).
Take `Cc1cc(=O)n(C2CCCCC2)c(=NC2CCCCC2)o1`: the T/C is 100 % of control under setting [8]; 95 % of control under setting [9]; 95 % of control (endpoint: mean survival time, dose: 400.0 mg/kg/injection, schedule: Q04DX002 (ip), vehicle: saline with Tween-80).
Take `CN1C2CCC1CC(OC(=O)/C=C/C(=O)OC1CC3CCC(C1)N3C)C2` (stereo not given): the T/C runs as follows: (endpoint: mean survival time, dose: 75.0 mg/kg/injection, schedule: Q01DX001 (ip), vehicle: saline) 94 % of control; (endpoint: mean survival time, dose: 150.0 mg/kg/injection, schedule: Q01DX001 (ip), vehicle: saline) 106 % of control; (endpoint: mean survival time, dose: 300.0 mg/kg/injection, schedule: Q01DX001 (ip), vehicle: saline) 94 % of control.
Turning to `c1ccc(N(c2ccccn2)c2ccccn2)nc1`, the T/C was 101 % of control (endpoint: mean survival time, dose: 25.0 mg/kg/injection, schedule: Q04DX002 (ip), vehicle: saline with Tween-80); 101 % of control (endpoint: mean survival time, dose: 50.0 mg/kg/injection, schedule: Q04DX002 (ip), vehicle: saline with Tween-80); 97 % of control under setting [8]; 97 % of control under setting [9].
Take `O=NNc1ccccn1`: the T/C was 114 % of control (endpoint: mean survival time, dose: 8.0 mg/kg/injection, schedule: Q04DX003 (ip), vehicle: saline); 104 % of control (endpoint: median survival time, dose: 0.78 mg/kg/injection, schedule: Q01DX009 (ip), vehicle: saline); 107 % of control (endpoint: median survival time, dose: 1.56 mg/kg/injection, schedule: Q01DX005 (ip), vehicle: saline); 106 % of control (endpoint: median survival time, dose: 1.56 mg/kg/injection, schedule: Q01DX009 (ip), vehicle: saline); 117 % of control and 110 % of control (endpoint: median survival time, dose: 3.12 mg/kg/injection, schedule: Q01DX005 (ip), vehicle: saline); 110 % of control (endpoint: median survival time, dose: 3.12 mg/kg/injection, schedule: Q01DX009 (ip), vehicle: saline). Moreover, the T/C (endpoint: median survival time, dose: 3.13 mg/kg/injection, schedule: Q01DX005 (ip), vehicle: saline) was 122 % of control; the T/C (endpoint: median survival time, dose: 6.25 mg/kg/injection, schedule: Q01DX005 (ip), vehicle: saline) was 117 % of control; the T/C (endpoint: median survival time, dose: 6.25 mg/kg/injection, schedule: Q01DX009 (ip), vehicle: saline) was 119 % of control; the T/C (endpoint: median survival time, dose: 12.5 mg/kg/injection, schedule: Q01DX005 (ip), vehicle: saline) was 160 % of control; the T/C (endpoint: median survival time, dose: 25.0 mg/kg/injection, schedule: Q01DX005 (ip), vehicle: saline) is 184 % of control and 187 % of control; the T/C (endpoint: median survival time, dose: 50.0 mg/kg/injection, schedule: Q01DX005 (ip), vehicle: saline) was 96 % of control and 103 % of control.
Turning to `Cc1cccc(/C=N\OCc2ccccc2)n1`, the T/C is, setting by setting: under setting [1], 98 % of control; under setting [3], 113 % of control.
For `Nc1nc(N)c(-c2ccc(Cl)cc2)c(/C=C/C=C/c2ccc([N+](=O)[O-])cc2)n1`, the T/C reads like this: (endpoint: mean survival time, dose: 50.0 mg/kg/injection, schedule: Q01DX001 (ip), vehicle: saline with Tween-80) 97 % of control; (endpoint: mean survival time, dose: 100.0 mg/kg/injection, schedule: Q01DX001 (ip), vehicle: saline with Tween-80) 92 % of control; (endpoint: mean survival time, dose: 200.0 mg/kg/injection, schedule: Q01DX001 (ip), vehicle: saline with Tween-80) 101 % of control.
Regarding `CCOC(=O)C(=Cc1ccc(C=C(C(=O)OCC)C(=O)OCC)cc1)C(=O)OCC`, the T/C was 95 % of control under setting [10]; 95 % of control (endpoint: mean survival time, dose: 100.0 mg/kg/injection, schedule: Q01DX009 (ip), vehicle: Klucel (hydroxypropylcellulose) (HPC)); 89 % of control (endpoint: mean survival time, dose: 200.0 mg/kg/injection, schedule: Q01DX009 (ip), vehicle: Klucel (hydroxypropylcellulose) (HPC)).
Regarding `CCOC(=O)C1(C(=O)OCC)C(C)CC2Nc3cc4c(cc3C(=O)N21)OCO4` (stereo not given), the T/C by setting is: (endpoint: mean survival time, dose: 100.0 mg/kg/injection, schedule: Q01DX001 (ip), vehicle: Klucel (hydroxypropylcellulose) (HPC)) 92 % of control; (endpoint: mean survival time, dose: 200.0 mg/kg/injection, schedule: Q01DX001 (ip), vehicle: Klucel (hydroxypropylcellulose) (HPC)) 96 % of control; (endpoint: mean survival time, dose: 400.0 mg/kg/injection, schedule: Q01DX001 (ip), vehicle: Klucel (hydroxypropylcellulose) (HPC)) 96 % of control.
Regarding `CCCC(CCC)=NN=C(CCC)CCC`, the T/C is, setting by setting: (endpoint: mean survival time, dose: 25.0 mg/kg/injection, schedule: Q01DX005 (ip), vehicle: saline) 97 % of control; (endpoint: mean survival time, dose: 25.0 mg/kg/injection, schedule: Q01DX009 (ip), vehicle: saline with Tween-80) 95 % of control; (endpoint: mean survival time, dose: 50.0 mg/kg/injection, schedule: Q01DX005 (ip), vehicle: saline) 97 % of control; (endpoint: mean survival time, dose: 50.0 mg/kg/injection, schedule: Q01DX009 (ip), vehicle: saline with Tween-80) 106 % of control; (endpoint: mean survival time, dose: 50.0 mg/kg/injection, schedule: Q04DX002 (ip), vehicle: saline + alcohol) 95 % of control; (endpoint: mean survival time, dose: 100.0 mg/kg/injection, schedule: Q01DX005 (ip), vehicle: saline) 105 % of control. For the same compound, the T/C under setting [1] was 91 % of control; the T/C (endpoint: mean survival time, dose: 100.0 mg/kg/injection, schedule: Q04DX002 (ip), vehicle: saline + alcohol) is 92 % of control; the T/C (endpoint: mean survival time, dose: 200.0 mg/kg/injection, schedule: Q01DX005 (ip), vehicle: saline) is 97 % of control; the T/C under setting [3] was 93 % of control; the T/C (endpoint: mean survival time, dose: 200.0 mg/kg/injection, schedule: Q04DX002 (ip), vehicle: saline + alcohol) was 88 % of control.
In the case of `O=C(O)c1cc2ccc(Cl)cc2c2cc(C(F)(F)F)ccc12`, the T/C reads like this: (endpoint: mean survival time, dose: 18.8 mg/kg/injection, schedule: Q01DX009 (ip), vehicle: saline) 97 % of control; (endpoint: mean survival time, dose: 37.5 mg/kg/injection, schedule: Q01DX009 (ip), vehicle: saline) 111 % of control; (endpoint: mean survival time, dose: 75.0 mg/kg/injection, schedule: Q04DX003 (ip), vehicle: saline) 95 % of control.
Turning to `O=C(O)C1C2CC3OC(=O)C1C3C2O` (stereo not given), the T/C by setting is: under setting [1], 91 % of control; under setting [3], 93 % of control; under setting [5], 96 % of control.
Consider `Oc1ccc(C(O)(c2ccccc2)c2ccc(O)c3ccccc23)c2ccccc12`, for which the T/C is 102 % of control under setting [2], 96 % of control under setting [4] and 103 % of control under setting [6].
Consider `Clc1ccc([PH+](c2ccc(Cl)cc2)c2ccc(Cl)cc2)cc1.Clc1ccc([PH+](c2ccc(Cl)cc2)c2ccc(Cl)cc2)cc1.[Cl][Hg][Cl]`, for which the T/C under setting [7] was 96 % of control and the T/C under setting [10] was 104 % of control.
`OCC12COCN1COC2`: the T/C is 98 % of control and 104 % of control (endpoint: mean survival time, dose: 12.5 mg/kg/injection, schedule: Q01DX009 (ip), vehicle: saline); 94 % of control and 96 % of control (endpoint: mean survival time, dose: 25.0 mg/kg/injection, schedule: Q01DX009 (ip), vehicle: saline); 101 % of control and 104 % of control (endpoint: mean survival time, dose: 50.0 mg/kg/injection, schedule: Q01DX009 (ip), vehicle: saline); 98 % of control and 101 % of control (endpoint: mean survival time, dose: 100.0 mg/kg/injection, schedule: Q01DX009 (ip), vehicle: saline); 96 % of control and 106 % of control (endpoint: mean survival time, dose: 200.0 mg/kg/injection, schedule: Q01DX009 (ip), vehicle: saline); 109 % of control and 112 % of control (endpoint: mean survival time, dose: 400.0 mg/kg/injection, schedule: Q01DX009 (ip), vehicle: saline).
